Data reported in patent US20170333391A1, “METHOD FOR DELAYING THE ONSET OF PULMONARY FIBROSIS OR TREATING PULMONARY FIBROSIS” (EVERFRONT BIOTECH INC., priority 2016, published 2017).

What was measured:
Format in all cases: cell-based, human
TGF-β = TGF-β mRNA expression in NHLF, Q-PCR (3-2); conditions: 24 hours
Method: Normal Human lung fibroblasts (NHLF) were seeded into 6-well plate at a density of 10^5 cells/well, comprising a control group and five experimental groups (6 wells in total). The cells were cultured until the next day, and then the mediums were removed. Each group was respectively treated under the following conditions to conduct follow-up experiments: • (1) Control group: cells were cultured in a FGM-2 medium containing 1% serum for 24 hours; • (2) Group α: cells were cultured in a FGM-2 medium containing 1% serum and compound (1) (5 μg/ml) for 24 hours; • (3) Group β: cells were cultured in a FGM-2 medium containing 1% serum and compound (1) (10 μg/ml) for 24 hours; • (4) Group γ: cells were cultured in a F-12K medium containing 1% serum and H2O2 (0.1 mM) for 24 hours; • (5) Group δ: cells were cultured in a F-12K medium containing 1% serum, H2O2 (0.1 mM) and compound (1) (5 μg/ml) for 24 hours; and • (6) Group ε: cells were cultured in a F-12K medium containing 1% serum, H2O2 (0.1 mM) and compound (1) (10 μg/ml) for 24 hours.
Thereafter, the total RNA of cells taken from each group were extracted, and then reverse transcription was conducted on the total RNA by using a QuantiTect Reverse Transcription Kit to obtain cDNA therefrom. A Q-PCR was then conducted on the cDNA to analyze the mRNA expression levels of genes such as α-SMA and TGF-β, wherein GAPDH gene served as an internal control. The results of the control group served as the basis for calculating the relative expression levels of the other groups.

BMP-7 protein = BMP-7 protein expression in NHLF, western blotting (3-1)
Method: Normal Human lung fibroblasts (NHLF) were seeded into 6 cm culture dishes at a density of 2×10^5 cells/dish, comprising a control group and six experimental groups (7 dishes in total). The cells were cultured until the next day, and then the mediums were removed. Each group was respectively treated under the following conditions to conduct follow-up experiments: • (1) Control group: cells were cultured in a FGM-2 medium containing 10% serum for 36 hours; • (2) Group i: cells were cultured in a FGM-2 medium containing 1% serum for 36 hours; • (3) Group ii: cells were firstly cultured in a FGM-2 medium containing 1% serum for 12 hours, and then compound (1) was added into the medium to provide a final concentration of 15 μg/ml; thereafter, the cells were cultured for another 24 hours; • (4) Group iii: cells were firstly cultured in a FGM-2 medium containing 1% serum for 12 hours, and then compound (1) was added into the medium to provide a final concentration of 25 μg/ml; thereafter, the cells were cultured for another 24 hours; • (5) Group iv: cells were cultured in a FGM-2 medium containing 1% serum and TGF-β1 (5 ng/ml) for 36 hours; • (6) Group v: cells were firstly cultured in a FGM-2 medium containing 1% serum and TGF-β1 (5 ng/ml) for 12 hours, and then compound (1) was added into the medium to provide a final concentration of 15 μg/ml; thereafter, the cells were cultured for another 24 hours; and • (7) Group vi: cells were firstly cultured in a FGM-2 medium containing 1% serum and TGF-β1 (5 ng/ml) for 12 hours, and then compound (1) was added into the medium to provide a final concentration of 25 μg/ml; thereafter, the cells were cultured for another 24 hours.
Thereafter, the proteins in the cells of each group were extracted, and the expressions of BMP-7 protein, TGF-β protein and α-SMA protein in the NHLF cells of each group were measured with western blotting, wherein the β-actin served as the internal control. The results of the control group served as the basis for calculating the relative expression levels of the other groups.

type I collagen = experiment: Type I collagen expression in TGF-β1-induced NHLF, western blotting (2-2); conditions: TGF-β1-only control group = 1
Method: Normal Human lung fibroblasts (NHLF) were seeded into 6 cm culture dishes at a density of 2×10^5 cells/dish, comprising a control group and six experimental groups (7 dishes in total). The cells were cultured until the next day, and then the mediums were removed. Each group was respectively treated under the following conditions to conduct follow-up experiments: • (1) Positive control group: cells were cultured in a FGM-2 medium containing 1% serum and TGF-β1 (5 ng/ml) for 36 hours; • (2) Group I: cells were firstly cultured in a FGM-2 medium containing 1% serum and TGF-β1 (5 ng/ml) for 12 hours, and then compound (1) was added into the medium to provide a final concentration of 15 μg/ml; thereafter, the cells were cultured for another 24 hours; • (3) Group II: cells were firstly cultured in a FGM-2 medium containing 1% serum and TGF-β1 (5 ng/ml) for 12 hours, and then compound (1) was added into the medium to provide a final concentration of 25 μg/ml; thereafter, the cells were cultured for another 24 hours; • (4) Group III: cells were firstly cultured in a FGM-2 medium containing 1% serum and TGF-β1 (5 ng/ml) for 12 hours, and then compound (1) was added into the medium to provide a final concentration of 35 μg/ml; thereafter, the cells were cultured for another 24 hours; • (5) Group IV: cells were firstly cultured in a FGM-2 medium containing 1% serum and TGF-β1 (5 ng/ml) for 12 hours, and then the Pirfenidone was added into the medium to provide a final concentration of 100 μg/ml; thereafter, the cells were cultured for another 24 hours; • (6) Group V: cells were firstly cultured in a FGM-2 medium containing 1% serum and TGF-β1 (5 ng/ml) for 12 hours, and then the Pirfenidone was added into the medium to provide a final concentration of 250 μg/ml; thereafter, the cells were cultured for another 24 hours; and • (7) Group VI: cells were firstly cultured in a FGM-2 medium containing 1% serum and TGF-β1 (5 ng/ml) for 12 hours, and then the Pirfenidone was added into the medium to provide a final concentration of 500 μg/ml; thereafter, the cells were cultured for another 24 hours.
Thereafter, the proteins in the cells of each group were extracted, and the expressions of type I collagen, BMP-7 protein and TGF-β protein in the NHLF cells of each group were measured with western blotting. The results of the control group served as the basis for calculating the relative expression levels of the other groups.

Structure (SMILES): CCCC=C1OC(=O)c2ccccc21 [compound (1)]
- Relative expression level (fold) TGF-β (TGF-β; Group α: mRNA, FGM-2 medium 1% serum + compound (1) 5 μg/ml, control group = 1): 0.61 fold
- Relative expression level (fold) TGF-β (TGF-β; Group β: mRNA, FGM-2 medium 1% serum + compound (1) 10 μg/ml, control group = 1): 0.12 fold
- Relative expression level (fold) TGF-β (TGF-β; Group δ: mRNA, F-12K medium 1% serum + H2O2 0.1 mM + compound (1) 5 μg/ml, control group = 1, H2O2-only group γ = 0.34): 0.42 fold
- Relative expression level (fold) TGF-β (TGF-β; Group ε: mRNA, F-12K medium 1% serum + H2O2 0.1 mM + compound (1) 10 μg/ml, control group = 1, H2O2-only group γ = 0.34): 0.04 fold
- Relative expression level (fold) BMP-7 protein (BMP-7 protein; Group ii: 1% serum 12 h, then compound (1) 15 μg/ml 24 h, no TGF-β1, 10% serum control = 1, 1% serum group i = 1): 0.91 fold
- Relative expression level (fold) BMP-7 protein (BMP-7 protein; Group iii: 1% serum 12 h, then compound (1) 25 μg/ml 24 h, no TGF-β1, 10% serum control = 1, 1% serum group i = 1): 0.81 fold
- Relative expression level (fold) BMP-7 protein (BMP-7 protein; Group v: 1% serum + TGF-β1 5 ng/ml 12 h, then compound (1) 15 μg/ml 24 h, 10% serum control = 1, TGF-β1-only group iv = 0.82): 0.76 fold
- Relative expression level (fold) BMP-7 protein (BMP-7 protein; Group vi: 1% serum + TGF-β1 5 ng/ml 12 h, then compound (1) 25 μg/ml 24 h, 10% serum control = 1, TGF-β1-only group iv = 0.82): 1.07 fold
- Relative expression level (fold) Type I collagen (type I collagen; Group I: TGF-β1 5 ng/ml 12 h, then compound (1) 15 μg/ml 24 h): 0.79 fold
- Relative expression level (fold) Type I collagen (type I collagen; Group II: TGF-β1 5 ng/ml 12 h, then compound (1) 25 μg/ml 24 h): 0.30 fold
- Relative expression level (fold) Type I collagen (type I collagen; Group III: TGF-β1 5 ng/ml 12 h, then compound (1) 35 μg/ml 24 h): 0.51 fold
